Measured values taken from patent publication US20140066385A1, “METHOD FOR TREATING CANCER BY COMBINED USE OF DRUGS” (Astellas Pharma Inc., priority 2011, published 2014).

Experiments:
[1] = test system: human non-small cell lung cancer (Calu-6); assay: Example 3: dose dependency of FK330 in enhancing paclitaxel in Calu-6 tumor-bearing mice; format: in vivo, nude mice; settings: Day 59; for tumor volume at the end of the study: mean±SEM
Description: Preparation of the test substances and conditioning of the cells were carried out in the same manner as in Example 2.
(§1) Five-week old male nude mice (CAnN Cg-Foxn1nu/CrlCrlj(nu/nu)) were purchased from Charles River Laboratories Japan, Inc. (Japan, Kanagawa). The animals were raised under specific pathogen-free (SPF) conditions throughout the test period by feeding standard feedstuff and drinking water. The cultured cells were subcutaneously inoculated into the dorsal region of the nude mice at a concentration of 3×10^6 cells/0.1 mL/mouse. Nude mice which had the tumor volumes (major axis×[minor axis]^2×0.52) ranging from 123.3 mm^3 to 274.4 mm^3 were assigned by using SAS to minimize the fluctuation in the tumor volume between the groups and within the group.
The first day of administration was designated as Day 0, and observation was made until Day 59. The respective groups (n=5) were treated as follows. FK330 was orally gavaged in an amount of 5 mL/kg, and paclitaxel was administered intravenously through the tail vein in an amount of 10 mL/kg. Paclitaxel was continuously administered from Day 0 to Day 5, and then was withdrawn for 21 days. This was defined as one cycle, and administration was carried out up to two cycles.
Paclitaxel single administration group: Paclitaxel 10 mg/kg/day (continuously administered for six days from Day 0 in Cycle 1, and continuously administered for 6 days from Day 27 in Cycle 2)
FK330 30 mg/kg bid (60 mg/kg/day)+paclitaxel 10 mg/kg/day (continuously administered for 6 days from Day 0 in Cycle 1, and continuously administered for 6 days from Day 27 in Cycle 2)
FK330 60 mg/kg bid (120 mg/kg/day)+paclitaxel 10 mg/kg/day (continuously administered for 6 days from Day 0 in Cycle 1, and continuously administered for 6 days from Day 27 in Cycle 2)
FK330 100 mg/kg bid (200 mg/kg/day)+paclitaxel 10 mg/kg/day (continuously administered for 6 days from Day 0 in Cycle 1, and continuously administered for 6 days from Day 27 in Cycle 2)
FK330 was orally gavaged (5 mL/kg) twice a day at an interval of 6 to 8 hours. Paclitaxel was administered by intravenous bolus injection (10 mL/kg) through the tail vein 2 to 4 hours after the administration of FK330.
(§2) Every 2 to 4 days, the body weight and the tumor diameters, determined by using a digital caliper, were measured. The tumor volume was calculated from the calculation formula for ellipsoid volume of (major axis×[minor axis]^2×0.52).

[2] = test system: human gastric cancer (NCI-N87); assay: Example 5: FK330 with paclitaxel in NCI-N87 tumor-bearing mice; format: in vivo, nude mice; settings: for tumor volume on the last day of experiment: NCI-N87, Day 56, mean±SEM
Description: Preparation of the test substances was carried out in the same manner as in Example 2.
Human gastric cancer-derived NCI-N87 (CRL-5822) was obtained from American Type Culture Collection (VA, USA), MKN-28 (JCRB0253) was obtained from Health Science Research Resources Bank (HSRRB), and AZ-521 (RCB2087) was obtained from Riken BRC. NCI-N87 and MKN-28 cells were cultured under the conditions of 37° C. and 5% CO2 by using RPMI1640 medium containing 10% heat-inactivated fetal bovine serum (FBS), and AZ-521 cells were cultured under the conditions of 37° C. and 5% CO2 by using DMEM medium containing 10% heat-inactivated FBS. The cells were harvested with trypsin and were suspended in PBS at 6×10^7 cells/mL, and the suspension was mixed with an equal amount of Matrigel (trade name) Basement Membrane Matrix (manufactured by Becton Dickinson Co., Bedford, Mass., USA).
as §1, with “Nude mice which had the tumor volumes (major axis×[minor axis]^2×0.52) ranging from 123.3 mm^3 to 274.4 mm^3 were assigned by using SAS to minimize the fluctuation in the tumor volume between the groups and within the group.” left out
as §2
The results are expressed as the mean value (Mean)±standard error (SEM). Using the actual measured values of the tumor volume at each measurement time point, an unpaired statistical test (Student's t-test) of the difference between two groups was carried out between a single administration group and a combined use group. […]

Row | SMILES | tumor volume reduction ratio compared with the paclitaxel-only group ([1]; FK330 30 mg/kg bid + paclitaxel 10 mg/kg/day) [%] | tumor volume at the end of the study ([1]; FK330 30 mg/kg bid combined use group with paclitaxel 10 mg/kg/day) [mm^3] | tumor volume reduction ratio compared with the paclitaxel-only group ([1]; FK330 60 mg/kg bid + paclitaxel 10 mg/kg/day) [%] | tumor volume at the end of the study ([1]; FK330 60 mg/kg bid combined use group with paclitaxel 10 mg/kg/day) [mm^3] | tumor volume reduction ratio compared with the paclitaxel-only group ([1]; FK330 100 mg/kg bid + paclitaxel 10 mg/kg/day) [%] | tumor volume at the end of the study ([1]; FK330 100 mg/kg bid combined use group with paclitaxel 10 mg/kg/day) [mm^3] | tumor volume on the last day of experiment ([2]; combined use group paclitaxel + FK330 100 mg/kg bid) [mm^3] | tumor volume decrease compared with the paclitaxel-only group ([2]; NCI-N87, last day, FK330 100 mg/kg bid + paclitaxel, P<0.03) [%] | tumor volume at the end of the study ([1]; paclitaxel-only group, 10 mg/kg/day i.v., two cycles) [mm^3] | tumor volume on the last day of experiment ([2]; paclitaxel-only group 10 mg/kg/day i.v., two cycles) [mm^3]
1 | O=C(/C=C/c1ccc(Cl)cc1)N[C@@H](Cc1ccccn1)C(=O)NCC(=O)N1CCC(Oc2cc(C(F)(F)F)ncn2)CC1 [FK330, N^2-[(2E)-3-(4-chlorophenyl)-2-propenoyl]-N-[2-oxo-2-(4-{[6-(trifluoromethyl)pyrimidin-4-yl]oxy}piperidin-1-yl)ethyl]-3-pyridin-2-yl-L-alaninamide] | 41.7 | 955.9±231.0 | 56.9 | 706.2±256.1 | 81.8 | 297.9±101.4 | 223.9±85.1 | 54.5 |  | 
2 | CC(=O)O[C@H]1C(=O)[C@@]2(C)[C@H]([C@H](OC(=O)c3ccccc3)[C@]3(O)C[C@H](OC(=O)[C@H](O)[C@@H](NC(=O)c4ccccc4)c4ccccc4)C(C)=C1C3(C)C)[C@]1(OC(C)=O)CO[C@@H]1C[C@@H]2O [paclitaxel, reference compound] |  |  |  |  |  |  |  |  | 1640.1±902.8 | 492.0±48.5
